Test systems include ACHN renal; HOP-92 NSCLC; LOX IMVI melanoma; M14 melanoma; MOLT-4 leukemia; NCI-H460 lung; SF-539 CNS; SNB-19 CNS; T-47D breast; UACC-62 melanoma.
Assay in all cases: growth of human tumour cells (NCI), 48 h

Where “and” joins values, the source holds several entries; their conditions need not be identical. Equal values may be shown once.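 Five compound concentrations were applied to cells in 96-well plates for 48 hours; endpoints were derived by simple linear interpolation of the resulting dose-response curve. At the GI50, growth is halved. The concentration for full growth arrest is given as TGI.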 *1 amine or outer side, *2 acyl side, *3 side chain or, on linkers, in order; H or OH if unused. Where a SMILES comes first, the peptide text is derived from it. Bridges are numbered along the chain shown (N, C = ends). Roman numbers before positions name the chains, in order. [ ]: non-standard residue; d: D form. Actinocin(9to1) = Cc1c2oc3c(C)ccc(C(=O)[*:1])c3nc-2c(C(=O)[*:2])c(N)c1=O; NMeF = CN[CH](Cc1ccccc1)C(=O)O; Sar = CNCC(=O)O

As to `COc1ccc2ccc3oc([N+](=O)[O-])cc3c2c1`, the GI50 in the assay on ACHN renal was 0.0402 µM; in the assay on HOP-92 NSCLC, 0.155 µM; in the assay with LOX IMVI melanoma it was 0.0557 µM; with M14 melanoma, 0.115 µM; in the assay on MOLT-4 leukemia, 0.0745 µM; in the assay with NCI-H460 lung, 0.114 µM. The GI50 in the assay with SF-539 CNS was 0.275 µM; in the assay with SNB-19 CNS, 0.281 µM; in the assay with T-47D breast, 1.83 µM; with UACC-62 melanoma it was 0.157 µM. The TGI was 1.44 µM in the assay with ACHN renal; 0.506 µM with HOP-92 NSCLC; 0.355 µM with LOX IMVI melanoma; 0.307 µM in the assay on M14 melanoma; greater than 100 µM in the assay with MOLT-4 leukemia; 0.405 µM in the assay with NCI-H460 lung. The TGI in the assay on SF-539 CNS was 1.07 µM; with SNB-19 CNS, greater than 100 µM; in the assay with T-47D breast, greater than 100 µM; in the assay on UACC-62 melanoma, 0.355 µM.

For `COc1ccccc1C(=O)N(C)c1ccc(Cl)c(C(=O)OC(C)C)c1`, the TGI in the assay with ACHN renal, with HOP-92 NSCLC, in the assay on LOX IMVI melanoma, in the assay on M14 melanoma, in the assay with MOLT-4 leukemia and in the assay on NCI-H460 lung was greater than 100 µM in each case. Also, the TGI was greater than 100 µM in the assay on SF-539 CNS, greater than 100 µM in the assay with SNB-19 CNS, 85.7 µM in the assay with T-47D breast and greater than 100 µM with UACC-62 melanoma.

For `Cc1c(Cl)cccc1NC(=O)c1sc2nc3c(cc2c1N)CCCCC3`, the GI50 with ACHN renal was 0.449 µM; with HOP-92 NSCLC, 0.266 µM; with LOX IMVI melanoma it was 0.262 µM; in the assay on M14 melanoma it was 0.233 µM; in the assay on MOLT-4 leukemia, 0.275 µM; in the assay on NCI-H460 lung it was 0.234 µM. Moreover, the GI50 with SF-539 CNS was 0.171 µM; in the assay on SNB-19 CNS, 0.298 µM; in the assay on T-47D breast, 0.22 µM; in the assay on UACC-62 melanoma it was 0.233 µM. For the same compound, the TGI was greater than 50 µM with ACHN renal; 19.2 µM with HOP-92 NSCLC; 23.7 µM in the assay with LOX IMVI melanoma; greater than 50 µM with M14 melanoma; greater than 50 µM in the assay on MOLT-4 leukemia; 8 µM with NCI-H460 lung. Also, the TGI in the assay with SF-539 CNS was 9.07 µM; with SNB-19 CNS it was greater than 50 µM; in the assay on T-47D breast, greater than 50 µM; with UACC-62 melanoma, greater than 50 µM.

Consider `Cc1c([N+](=O)[O-])oc2ccc3ccccc3c12`, for which the TGI with ACHN renal, with HOP-92 NSCLC, in the assay with LOX IMVI melanoma, in the assay on M14 melanoma, in the assay on MOLT-4 leukemia and in the assay on NCI-H460 lung was greater than 100 µM throughout. For the same compound, the TGI with SF-539 CNS, in the assay with SNB-19 CNS, with T-47D breast and with UACC-62 melanoma was greater than 100 µM in each case.

For `C=C1C(=O)O[C@H]2[C@H]1CC/C(COC(=O)NCc1ccc(Cn3c(=O)sn(-c4ccccc4)c3=O)cc1)=C\CC[C@@]1(C)O[C@@H]21`, the GI50 in the assay with ACHN renal is 1.64 µM; with HOP-92 NSCLC it was 1.82 µM; with LOX IMVI melanoma, 1.62 µM; in the assay with M14 melanoma, 1.8 µM; in the assay with MOLT-4 leukemia, 2.2 µM; in the assay on NCI-H460 lung, 3.67 µM. Moreover, the GI50 is 1.57 µM with SF-539 CNS, 4.26 µM in the assay on SNB-19 CNS, 1.98 µM in the assay on T-47D breast and 2.04 µM with UACC-62 melanoma. The TGI stood at 3.14 µM in the assay on ACHN renal; 3.44 µM with HOP-92 NSCLC; 3.07 µM with LOX IMVI melanoma; 3.58 µM in the assay on M14 melanoma; 7.09 µM in the assay with MOLT-4 leukemia; 12.4 µM in the assay on NCI-H460 lung. For the same compound, the TGI worked out at 3.06 µM in the assay on SF-539 CNS, 16.1 µM in the assay on SNB-19 CNS, 4.66 µM in the assay on T-47D breast and 4.15 µM with UACC-62 melanoma.

Consider `CC(C)=CCCC(C)C1=C(O)C(=O)C(C)=CC1=O` (stereo not given), for which the TGI was 3.98 µM in the assay with ACHN renal; 3.67 µM in the assay on HOP-92 NSCLC; 15.1 µM in the assay on LOX IMVI melanoma; 36 µM with M14 melanoma; 5.12 µM with MOLT-4 leukemia; greater than 100 µM in the assay with NCI-H460 lung. The TGI in the assay on SF-539 CNS was 41.9 µM; in the assay on SNB-19 CNS, greater than 62.4 µM; in the assay on T-47D breast it was 3.92 µM; with UACC-62 melanoma, 27.9 µM.

As to `COc1cc(-c2csc(NC(=O)Nc3cc(Cl)cc(Cl)c3)n2)cc(OC)c1OC`, the GI50 with ACHN renal is 1.71 µM; in the assay on HOP-92 NSCLC it was 1.7 µM; in the assay with LOX IMVI melanoma it was 1.93 µM; with M14 melanoma, 1.68 µM; in the assay on MOLT-4 leukemia, 3.9 µM; in the assay on NCI-H460 lung, 1.81 µM. In addition, the GI50 with SF-539 CNS is 1.99 µM; in the assay with SNB-19 CNS, 1.93 µM; in the assay with T-47D breast it was 1.67 µM; in the assay on UACC-62 melanoma, 1.61 µM. Besides, the TGI was 3.15 µM in the assay on ACHN renal; 3.73 µM with HOP-92 NSCLC; 3.96 µM with LOX IMVI melanoma; 3.15 µM in the assay with M14 melanoma; greater than 100 µM with MOLT-4 leukemia; 3.52 µM with NCI-H460 lung. The TGI amounted to 4.7 µM in the assay with SF-539 CNS, 4.03 µM in the assay on SNB-19 CNS, 3.74 µM in the assay on T-47D breast and 3.11 µM in the assay on UACC-62 melanoma.

Regarding `Cc1c2oc3c(C)ccc(C(=O)NC4C(=O)NC(C(C)C)C(=O)N5CCCC5C(=O)N(C)CC(=O)N(C)C(Cc5ccccc5)C(=O)OC4C)c3nc-2c(C(=O)NC2C(=O)NC(C(C)C)C(=O)N3CCCC3C(=O)N(C)CC(=O)N(C)C(Cc3ccccc3)C(=O)OC2C)c(N)c1=O` (stereo not given) (I: TVP[Sar][NMeF] / II: TVP[Sar][NMeF]; ester I:1-I:C, II:1-II:C; linker I:N-II:N via Actinocin(9to1); configuration not given here), the TGI with ACHN renal was greater than 1 µM; in the assay on HOP-92 NSCLC it was < 0.0476 µM and 0.0606 µM; in the assay on LOX IMVI melanoma, less than 0.01 µM; in the assay with M14 melanoma, 0.126 µM; with MOLT-4 leukemia, 0.00414 µM; with NCI-H460 lung, < 0.01 µM and 0.0206 µM. Further, the TGI was < 0.01 µM and 0.0439 µM in the assay on SF-539 CNS; 0.118 µM and > 0.381 µM in the assay on SNB-19 CNS; < 0.01 µM and 0.0419 µM with T-47D breast; < 0.01 µM and 0.0188 µM in the assay on UACC-62 melanoma. Further, the GI50 in the assay on LOX IMVI melanoma was < 0.01 µM and 0.00103 µM; with MOLT-4 leukemia, 0.000346 µM; in the assay with NCI-H460 lung, < 0.01 µM and 0.00074 µM; in the assay on SNB-19 CNS, < 0.01 µM and 0.00378 µM; in the assay on UACC-62 melanoma, < 0.01 µM and 0.00426 µM.

The values are drawn from PubChem BioAssay (NCI).
